From patent US8481459B2, “Chemical inhibitors of ethylene biosynthesis” (Academia Sinica, priority 2010, dated 2013)

Test system: gene expression in etiolated eto1-4 seedlings
Experiment: Transcriptional profiling (ATH1 GeneChip microarray) of etiolated eto1-4 seedlings
Assay type: in vivo, Arabidopsis thaliana
Details: ratio eto1-4 treated to eto1-4 (no treatment)
Experimental: For chemical treatments, seeds were sown on 0.5×MS agar medium supplemented with 10 μM chemicals (AVG, compounds 9393, 9370, and 7303) or DMSO (as control). Arabidopsis seeds were stratified in the dark at 4° C. for 4 days, then germinated in the dark for 3 days at 22° C. Approximately 2,000 etiolated seedlings of the wild type or eto1-4 were used to collect tissues for preparation of total RNA in each microarray experiment with Arabidopsis ATH1 GeneChip (Affymetrix). Extraction of RNA followed an established protocol (Chang, et al. (1993) Plant Mol. Biol. Rep. 11, 113-117). Total RNA (10 μg) was used to prepare biotinylated cRNA for hybridization to ATH1 GeneChip in the experiments disclosed herein. Experiments were repeated by 2 independent biological duplicates, and candidate genes present in both experiments were selected for further analysis. The MASS method was used for data analysis and normalization by all sample medium. Candidate genes were selected by the following criteria. First, genes with 1.5-fold differential expression between the wild type and eto1-4 were selected as the master gene pool, which was then used for comparison in treatments with AVG and individual exemplary compounds. Data were presented in hierarchical clustering and Venn diagram format. Agilent GeneSpring GX and Bioconductor software were used to analyze the expression profile data. Gene Ontology descriptions were generated by GeneSpring GX and further referred to the TAR GO database. Raw data are available in the GEO database (http://www.ncbi.nlm.nih.gov/geo) with Accession no. GSE20897.
The filtered and normalized expression data set from 22810 probes on the ATH1 Genechip was used for hierarchical clustering of gene expression profiles for comparison between AVG and the exemplary invention compounds in eto1-4. It was identified that 1,446 genes show at least 1.5-fold difference in expression between the WT and eto1-4 and used them as the master gene pool for clustering analysis (FIG. 7A). […] These genes likely contribute to the etiolated phenotype of eto1-4 by responding to elevated endogenous ethylene. To determine whether the exemplary compounds have specific r overlapping functions with AVG to suppress the eto1-4 phenotype, genes that are regulated by individual exemplary invention compounds and AVG for Venn diagram analysis were clustered (FIG. 7B). More than 63% of genes (356/561 for compound 9393; 389/561 for compound 9370; 399/561 for compound 7303; FIG. 7B) with expression associated with AVG were co-regulated by the exemplary invention compounds, which indicates an overlap function in suppression of the ethylene phenotype in eto1-4. […] Next genes co-regulated by all of the exemplary invention compounds and AVG were examined by performing a clustering analysis using the co-regulated genes identified in FIG. 7B: 356 (compound 9393 vs AVG), 389 (compound 9370 vs AVG) and 399 genes (compound 7303 vs AVG). It was uncovered that 276 genes were co-regulated by all of the exemplary invention compounds and AVG (FIG. 7C and Table 2). On the basis of GO descriptions generated by Gene Spring GX and TAIR database, the 276 genes were divided into subgroups related to their biological functions (Table 2). […] In addition, stress- and pathogenesis-related genes were among the co-regulated genes, possibly because ethylene is involved in both biotic and abiotic stresses.
Genes (1446 non-redundant loci) were selected by 1.5-fold differential expression between eto1-4 and WT as the master pool for analysis. These genes were used for comparison between chemical treatments by AVG and the exemplary invention compounds. The finalized 276 genes that are co-regulated by AVG and all of the exemplary invention compounds are shown. Locus ID also present in Nemhauser et al. (Nemhauser, et al. (2006) Cell 126, 467-475).

Structure (SMILES): CC1(C)CC(=O)c2cnc(NC3CCCC3)nc2C1 [Compound 9393]
- Signal Fold Change AT3G14850, unknown biological function: 0.29
- Signal Fold Change AT3G15890 protein kinase: 1.98
- Signal Fold Change AT3G16450 jacalin lectin protein: 2.09
- Signal Fold Change AT3G16470 jacalin lectin protein: 4.09
- Signal Fold Change AT3G16690, unknown biological function: 3.33
- Signal Fold Change AT3G17680, unknown biological function: 0.33
- Signal Fold Change AT3G20130 cytochrome P450: 1.72
- Signal Fold Change AT3G21770 peroxidase 30: 1.57
- Signal Fold Change AT3G22620 lipid transfer protein: 1.94
- Signal Fold Change AT3G23150 ethylene receptor, putative (ETR2): 0.15
- Signal Fold Change AT3G23800, unknown biological function: 0.46
- Signal Fold Change AT3G24670, unknown biological function: 0.32
- Signal Fold Change AT3G25710 bHLH protein: 2.27
- Signal Fold Change AT3G25730 AP2-containing transcription factor: 0.26
- Signal Fold Change AT3G25980 mitotic spindle checkpoint protein: 2.35
- Signal Fold Change AT3G27580 protein kinase: 0.48
- Signal Fold Change AT3G28290, unknown biological function: 0.29
- Signal Fold Change AT3G29250 short-chain dehydrogenase: 4.05
- Signal Fold Change AT3G30775 proline oxidase, mitochondrial: 2.13
- Signal Fold Change AT3G43270 pectinesterase protein: 0.26
- Signal Fold Change AT3G44820, response to light stimulus, phototropic-responsive NPH3 protein: 2.81
- Signal Fold Change AT3G44990 endo-xyloglucan transferase: 0.28
- Signal Fold Change AT3G45710 proton-dependent oligopeptide transport (POT) protein: 1.98
- Signal Fold Change AT3G46130 myb transcription factor (MYB48): 2.63
- Signal Fold Change AT3G46700 UDP-glucosyl transferase: 3.09
- Signal Fold Change AT3G47210, unknown biological function: 2.53
- Signal Fold Change AT3G47250, unknown biological function: 3.68
- Signal Fold Change AT3G49780 phytosulfokines 3 (PSK3): 4.97
- Signal Fold Change AT3G50660 steroid 22-alpha-hydroxylase: 4.32
- Signal Fold Change AT3G51410, unknown biological function: 0.32
- Signal Fold Change AT3G51970, unknown biological function: 2.49
- Signal Fold Change AT3G52180 protein tyrosine phosphatase: 0.32
- Signal Fold Change AT3G52920 expressed protein (defense response): 3.09
- Signal Fold Change AT3G53540, unknown biological function: 0.38
- Signal Fold Change AT3G56480, unknown biological function: 2.21
- Signal Fold Change AT3G58710 WRKY transcription factor: 2.14
- Signal Fold Change AT3G59370, unknown biological function: 2.91
- Signal Fold Change AT3G59710 short-chain dehydrogenase: 0.39
- Signal Fold Change AT3G59900, unknown biological function: 0.43
- Signal Fold Change AT3G60520, unknown biological function: 0.27
- Signal Fold Change AT3G61160 shaggy-related protein kinase beta/ASK-beta (ASK2): 3.26
- Signal Fold Change AT4G00730 anthocyaninless2: 0.55
- Signal Fold Change AT4G01410, unknown biological function: 0.40
- Signal Fold Change AT4G03140 short-chain dehydrogenase: 0.41
- Signal Fold Change AT4G08300, unknown biological function: 3.06
- Signal Fold Change AT4G09570 calcium-dependent protein kinase: 0.36
- Signal Fold Change AT4G10910, unknown biological function: 4.86
- Signal Fold Change AT4G11190 disease resistance-responsive protein: 5.56
- Signal Fold Change AT4G11280 ACC synthase 6: 1.87
- Signal Fold Change AT4G11310 cysteine proteinase: 8.01
- Signal Fold Change AT4G12080, unknown biological function: 1.88
- Signal Fold Change AT4G12410 auxin-responsive protein: 2.76
- Signal Fold Change AT4G12480 lipid transfer protein: 0.20
- Signal Fold Change AT4G13210, unknown biological function: 0.29
- Signal Fold Change AT4G15550 UDP-glucose:indole-3-acetate beta-D-glucosyltransferase: 0.36
- Signal Fold Change AT4G15920, unknown biological function: 13.52
- Signal Fold Change AT4G17220 expressed protein (cytoskeleton organization and biogenesis): 2.49
- Signal Fold Change AT4G18340 glycosyl hydrolase: 2.57
- Signal Fold Change AT4G23410 senescence-associated protein: 1.97
- Signal Fold Change AT4G25780, unknown biological function: 9.02
- Signal Fold Change AT4G26010 peroxidase: 0.45
- Signal Fold Change AT4G28085, unknown biological function: 2.86
- Signal Fold Change AT4G31000, unknown biological function: 0.55
- Signal Fold Change AT4G32920, unknown biological function: 2.39
- Signal Fold Change AT4G34560, unknown biological function: 2.00
- Signal Fold Change AT4G34760 auxin-responsive protein: 0.20
- Signal Fold Change AT4G35060 copper chaperone: 3.14
- Signal Fold Change AT4G35150, unknown biological function: 0.32
- Signal Fold Change AT4G36520, unknown biological function: 2.71
- Signal Fold Change AT4G37220 stress-responsive protein: 7.29
- Signal Fold Change AT4G38690, signal transduction, 1-phosphatidylinositol: 2.55
- Signal Fold Change AT4G39210 ADP-glucose pyrophosphorylase: 0.44
- Signal Fold Change AT4G39800 inositol-3-phosphate synthase isozyme 1: 2.16
- Signal Fold Change AT4G39840, unknown biological function: 0.37
- Signal Fold Change AT5G01210, unknown biological function: 0.33
- Signal Fold Change AT5G01300, unknown biological function: 1.40
- Signal Fold Change AT5G02260, cell wall organization and biogenesis, expansin (EXP9): 0.16
- Signal Fold Change AT5G02540 short-chain dehydrogenase: 0.17
- Signal Fold Change AT5G03160 DNAJ heat shock N-terminal domain-containing protein: 1.90
- Signal Fold Change AT5G04080, unknown biological function: 2.48
- Signal Fold Change AT5G05180, unknown biological function: 1.79
- Signal Fold Change AT5G06200, unknown biological function: 1.94
- Signal Fold Change AT5G08240, unknown biological function: 1.79
- Signal Fold Change AT5G08260 serine carboxypeptidase S10 protein: 0.50
- Signal Fold Change AT5G08370 alpha-galactosidase: 2.77
- Signal Fold Change AT5G09980 expressed protein (defense response): 0.35
- Signal Fold Change AT5G10720 sensory transduction histidine kinase: 0.48
- Signal Fold Change AT5G11540, unknown biological function: 5.32
- Signal Fold Change AT5G12170, response to cadmium ion, expressed protein: 0.36
- Signal Fold Change AT5G13870 endo-xyloglucan transferase: 0.27
- Signal Fold Change AT5G13910 AP2/EREBP-like transcription factor: 0.46
- Signal Fold Change AT5G14780 formate dehydrogenase: 0.44
- Signal Fold Change AT5G14920 gibberellin-regulated protein: 0.35
- Signal Fold Change AT5G15290, unknown biological function: 2.43
- Signal Fold Change AT5G15530 biotin carboxyl carrier protein 2: 0.54
- Signal Fold Change AT5G15830 bZIP transcription factor protein: 3.94
- Signal Fold Change AT5G18470, unknown biological function: 0.13
- Signal Fold Change AT5G18670 beta-amylase: 0.50
- Signal Fold Change AT5G18860, unknown biological function: 2.02
- Signal Fold Change AT5G18970, unknown biological function: 2.49
- Signal Fold Change AT5G19890 peroxidase: 0.13
- Signal Fold Change AT5G19930, unknown biological function: 1.64
- Signal Fold Change AT5G20410 monogalactosyldiacylglycerol synthase: 2.77
- Signal Fold Change AT5G22310, unknown biological function: 0.37
- Signal Fold Change AT5G22860 serine carboxypeptidase S28 protein: 2.63
- Signal Fold Change AT5G23750, unknown biological function: 3.60
- Signal Fold Change AT5G24870, unknown biological function: 2.16
- Signal Fold Change AT5G25140 cytochrome P450: 4.21
- Signal Fold Change AT5G25160 zinc finger (C2H2 type) protein: 2.60
- Signal Fold Change AT5G25190 ethylene-responsive element-binding protein: 0.32
- Signal Fold Change AT5G34940, unknown biological function: 0.49
- Signal Fold Change AT5G37300, unknown biological function: 3.86
- Signal Fold Change AT5G38930, unknown biological function: 0.33
- Signal Fold Change AT5G39860 bHLH protein: 2.39
- Signal Fold Change AT5G41900 hydrolase: 2.67
- Signal Fold Change AT5G44410, unknown biological function: 3.37
- Signal Fold Change AT5G44580, unknown biological function: 0.22
- Signal Fold Change AT5G46890 lipid transfer protein: 3.64
- Signal Fold Change AT5G47240, unknown biological function: 3.96
- Signal Fold Change AT5G47330 palmitoyl protein thioesterase protein: 2.52
- Signal Fold Change AT5G47450 major intrinsic protein: 2.24
- Signal Fold Change AT5G47950, unknown biological function: 1.93
- Signal Fold Change AT5G48490 lipid transfer protein: 9.12
- Signal Fold Change AT5G48900, unknown biological function: 0.55
- Signal Fold Change AT5G49900, unknown biological function: 2.24
- Signal Fold Change AT5G50720 ABA-responsive protein (HVA22e): 2.52
- Signal Fold Change AT5G52120 SKP1 interacting partner 3 protein: 5.39
- Signal Fold Change AT5G53190, unknown biological function: 4.35
- Signal Fold Change AT5G53830, unknown biological function: 0.40
- Signal Fold Change AT5G56320, cell wall organization and biogenesis, expansin (EXP14): 3.15
- Signal Fold Change AT5G58660, unknown biological function: 0.34
- Signal Fold Change AT5G59540 oxidoreductase: 0.44
- Signal Fold Change AT5G63450 cytochrome P450: 6.43
- Signal Fold Change AT5G63650 serine/threonine protein kinase: 0.42
- Signal Fold Change AT5G65970 seven transmembrane MLO protein: 2.60
- Signal Fold Change AT5G66310, microtubule-based movement, kinesin motor protein: 0.48
- Signal Fold Change AT5G66400 dehydrin (RAB18): 1.09
- Signal Fold Change AT5G66440, unknown biological function: 0.30
- Signal Fold Change AT5G66460 (1-4)-beta-mannan endohydrolase: 0.51
- Signal Fold Change AT5G66780, unknown biological function: 0.78
